IC50 data for 30 molecules are collected here from US20240158392A1 (Janssen Biotech, Inc., priority 2021, published 2024).

SIK2, sequence (Q9H0K1 whole entry, species assumed): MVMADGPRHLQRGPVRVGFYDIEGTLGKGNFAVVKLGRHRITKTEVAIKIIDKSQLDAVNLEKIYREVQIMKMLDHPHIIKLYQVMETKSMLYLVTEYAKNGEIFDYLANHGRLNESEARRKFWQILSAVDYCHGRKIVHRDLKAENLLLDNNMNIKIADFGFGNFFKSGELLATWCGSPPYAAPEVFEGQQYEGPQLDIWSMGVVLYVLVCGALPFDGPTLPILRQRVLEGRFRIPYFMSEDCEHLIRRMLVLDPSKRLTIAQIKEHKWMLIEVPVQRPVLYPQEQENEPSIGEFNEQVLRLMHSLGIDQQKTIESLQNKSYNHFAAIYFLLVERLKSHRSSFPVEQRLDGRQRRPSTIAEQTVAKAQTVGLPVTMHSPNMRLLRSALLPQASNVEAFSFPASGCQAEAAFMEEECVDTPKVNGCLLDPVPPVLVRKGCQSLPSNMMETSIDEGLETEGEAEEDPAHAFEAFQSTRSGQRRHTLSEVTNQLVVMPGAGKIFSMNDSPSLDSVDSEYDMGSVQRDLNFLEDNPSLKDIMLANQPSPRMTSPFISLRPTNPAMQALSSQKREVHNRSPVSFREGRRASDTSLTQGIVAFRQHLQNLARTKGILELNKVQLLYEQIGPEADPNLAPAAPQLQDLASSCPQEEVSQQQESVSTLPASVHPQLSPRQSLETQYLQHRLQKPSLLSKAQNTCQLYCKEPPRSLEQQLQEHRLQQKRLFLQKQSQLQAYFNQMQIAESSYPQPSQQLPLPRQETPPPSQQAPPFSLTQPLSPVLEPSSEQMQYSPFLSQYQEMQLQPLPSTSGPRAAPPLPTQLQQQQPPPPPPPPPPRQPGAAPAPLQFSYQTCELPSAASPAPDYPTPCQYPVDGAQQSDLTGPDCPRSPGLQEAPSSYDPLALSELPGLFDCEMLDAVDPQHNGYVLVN

The assay addresses SIK2 (Homo sapiens, UniProt Q9H0K1). Put plainly: SIK2 Enzymatic Assay Version 1 (ADP Glo). In kind it is biochemical. To be noted: enzyme 0.6 nM, 160 μM ATP and 140 μM HDAC5tide (each 2× final concentration); 30 minutes pre-incubation, 4 hours; ADPGlo luminescence; read-out: SIK2 ADP Glo IC50 (μM) (Test Example 1). How it is done: All steps were performed at room temperature. Compounds were pre-plated onto an assay plate using an Echo acoustic dispenser (Labcyte, E550 or E555) at 20 nL per well. Enzyme prepared in Assay Buffer at 0.6 nM (2× final concentration) was added at 2 μL per well using the Multidrop Combi (Thermo Fisher—used for all additions in this assay) to the assay plate, spun for 1 min at 800-850 rpm (Allegra 6KR Beckman Coulter centrifuge), and incubated with compound for 30 minutes.
One column of wells was dedicated to a no-peptide negative control (containing only ATP). ADPGlo Reagent (prepared and aliquoted as per manufacturer instructions) was then added at 2 μL per well, spun and incubated for 40 min. ADPGlo Detection (prepared and aliquoted as per manufacturer instructions) was added at 2 μL per well to the assay plate, which was spun and incubated for at least 30 min. The plate was then read on the Pherastar (BMG Labtech) using a luminescence read. Gain was set by the 0.1 mM concentration of ADP wells in the ADP/ATP standard curve plate generated as per manufacturer instructions.
Usually IC50 stands for the concentration at which inhibition is half-maximal. As for `CN1CC[C@H](CNc2cnc(C#N)cc2-c2ccn3nc(NC(=O)C4CC4)cc3c2)C1` [Example 71, N-[5-[2-cyano-5-[[(3R)-1-methylpyrrolidin-3-yl]methylamino]-4-pyridyl]pyrazolo[1,5-a]pyridin-2-yl]cyclopropanecarboxamide], the IC50 worked out at 0.0577 µM. For `CN1CCOC[C@H](Oc2cnc(C#N)cc2-c2ccn3nc(NC(=O)C4CC4)cc3c2)C1` [Example 12, N-[5-[2-cyano-5-[[(6R)-4-methyl-1,4-oxazepan-6-yl]oxy]-4-pyridyl]pyrazolo[1,5-a]pyridin-2-yl]cyclopropanecarboxamide], the IC50 was 0.0133 µM.

As for `COc1ccc(C)cc1-c1ccn2nc(NC(=O)C3CC3)cc2c1` [Example 744, N-[5-(2-methoxy-5-methyl-phenyl)pyrazolo[1,5-a]pyridin-2-yl]cyclopropanecarboxamide], the IC50 was 0.289 µM. `N#Cc1cc(-c2ccn3nc(NC(=O)C4CC4)cc3c2)c(NCC2CC2)cn1` [Example 76, N-[5-[2-cyano-5-(cyclopropylmethylamino)-4-pyridyl]pyrazolo[1,5-a]pyridin-2-yl]cyclopropanecarboxamide]: the IC50 was 0.0255 µM. To `N#Cc1cc(-c2ccn3nc(NC(=O)C4CC4)cc3c2)c(NC2CCCC2)cn1` [Example 78, N-[5-[2-cyano-5-(cyclopentylamino)-4-pyridyl]pyrazolo[1,5-a]pyridin-2-yl]cyclopropanecarboxamide] belongs 0.0143 µM; to `N#Cc1cc(-c2ccn3nc(NC(=O)C4CC4)cc3c2)c(OC2(C(F)(F)F)CCNCC2)cn1` [Example 9, N-(5-(2-cyano-5-((4-(trifluoromethyl)piperidin-4-yl)oxy)pyridin-4-yl)pyrazolo[1,5-a]pyridin-2-yl)cyclopropanecarboxamide], 0.152 µM; to `COc1cccc(C)c1-c1ccn2nc(NC(=O)C3CC3)cc2c1` [Example 746, N-[5-(2-methoxy-6-methyl-phenyl)pyrazolo[1,5-a]pyridin-2-yl]cyclopropanecarboxamide], 0.271 µM.

With `COc1ncccc1-c1ccn2nc(NC(=O)C3CC3)cc2c1` [Example 748, N-[5-(2-methoxy-3-pyridyl)pyrazolo[1,5-a]pyridin-2-yl]cyclopropanecarboxamide], the IC50 was found to be 0.0965 µM. `CC(C)(C)OC(=O)N1CC2(CC(Oc3cnc(C#N)cc3-c3ccn4nc(NC(=O)C5CC5)cc4c3)C2)C1` [Example 34, tert-butyl 2-[[6-cyano-4-[2-(cyclopropanecarbonylamino)pyrazolo[1,5-a]pyridin-5-yl]-3-pyridyl]oxy]-6-azaspiro[3.3]heptane-6-carboxylate]: the IC50 is 0.0227 µM. With `CO[C@H]1C[C@@H](Oc2cnc(C)cc2-c2ccn3nc(NC(=O)C4CC4)cc3c2)C1` [Example 147, cis-N-[5-[5-(3-methoxycyclobutoxy)-2-methyl-4-pyridyl]pyrazolo[1,5-a]pyridin-2-yl]cyclopropanecarboxamide] the figure was 0.0124 µM; with `CN1CC2CN(c3cnc(C#N)cc3-c3ccn4nc(NC(=O)C5CC5)cc4c3)CC2C1` (stereo not drawn) [Example 90, N-[5-[2-cyano-5-(2-methyl-1,3,3a,4,6,6a-hexahydropyrrolo[3,4-c]pyrrol-5-yl)-4-pyridyl]pyrazolo[1,5-a]pyridin-2-yl]cyclopropanecarboxamide], 0.0134 µM; with `N#Cc1cc(-c2ccn3nc(NC(=O)C4CC4)cc3c2)c(O[C@@H]2CCN(C3CC3)C2)cn1` [Example 25, N-[5-[2-cyano-5-[(3R)-1-cyclopropylpyrrolidin-3-yl]oxy-4-pyridyl]pyrazolo[1,5-a]pyridin-2-yl]cyclopropanecarboxamide], 0.00145 µM. Take `N#Cc1cc(-c2ccn3nc(NC(=O)C4CC4)cc3c2)c(O[C@H]2CNCCOC2)cn1` [Example 84, N-[5-[2-cyano-5-[[(6S)-1,4-oxazepan-6-yl]oxy]-4-pyridyl]pyrazolo[1,5-a]pyridin-2-yl]cyclopropanecarboxamide]: the IC50 was found to be 0.014 µM. With `CCN1CC(Oc2cnc(C)cc2-c2ccn3nc(NC(=O)C4CC4)cc3c2)C1` [Example 141, N-[5-[5-(1-ethylazetidin-3-yl)oxy-2-methyl-4-pyridyl]pyrazolo[1,5-a]pyridin-2-yl]cyclopropanecarboxamide], the IC50 amounted to 0.0138 µM. Consider `N#Cc1cc(-c2ccn3nc(NC(=O)C4CC4)cc3c2)c(N2CC(CO)C2)cn1` [Example 3, N-[5-[2-cyano-5-[3-(hydroxymethyl)azetidin-1-yl]-4-pyridyl]pyrazolo[1,5-a]pyridin-2-yl]cyclopropanecarboxamide], for which the IC50 came out at 0.0183 µM. Consider `Cn1ccc(Nc2cnc(C#N)cc2-c2ccn3nc(NC(=O)C4CC4)cc3c2)n1` [Example 77, N-[5-[2-cyano-5-[(1-methylpyrazol-3-yl)amino]-4-pyridyl]pyrazolo[1,5-a]pyridin-2-yl]cyclopropanecarboxamide], for which the IC50 turned out to be 0.242 µM. Consider `CC(C)(O)C1CN(c2cnc(C#N)cc2-c2ccn3nc(NC(=O)C4CC4)cc3c2)C1` [Example 74, N-[5-[2-cyano-5-[3-(1-hydroxy-1-methyl-ethyl)azetidin-1-yl]-4-pyridyl]pyrazolo[1,5-a]pyridin-2-yl]cyclopropanecarboxamide], for which the IC50 is 0.00654 µM. With `N#Cc1cc(-c2ccn3nc(NC(=O)C4CC4)cc3c2)c(O[C@@H]2CNCCOC2)cn1` [Example 21, N-[5-[2-cyano-5-[[(6R)-1,4-oxazepan-6-yl]oxy]-4-pyridyl]pyrazolo[1,5-a]pyridin-2-yl]cyclopropanecarboxamide] the figure was 0.0213 µM; with `COc1ccccc1-c1ccn2nc(NC(=O)C3CC3)cc2c1` [Example 742, N-[5-(2-methoxyphenyl)pyrazolo[1,5-a]pyridin-2-yl]cyclopropanecarboxamide], 0.417 µM; with `CO[C@H]1C[C@H](Oc2cnc(C)cc2-c2ccn3nc(NC(=O)C4CC4)cc3c2)C1` [Example 146, trans-N-[5-[5-(3-methoxycyclobutoxy)-2-methyl-4-pyridyl]pyrazolo[1,5-a]pyridin-2-yl]cyclopropanecarboxamide], 0.0352 µM. As for `CN(C)CCNc1cnc(C#N)cc1-c1ccn2nc(NC(=O)C3CC3)cc2c1` [Example 2, N-[5-[2-cyano-5-(2-dimethylaminoethylamino)-4-pyridyl]pyrazolo[1,5-a]pyridin-2-yl]cyclopropanecarboxamide], the IC50 was 0.0691 µM.

Turning to `CN1C[C@@H](Oc2cnc(C#N)cc2-c2ccn3nc(NC(=O)C4CC4)cc3c2)C[C@@H](C(F)(F)F)C1` [Example 28, N-[5-[2-cyano-5-[[(3S,5R)-1-methyl-5-(trifluoromethyl)-3-piperidyl]oxy]-4-pyridyl]pyrazolo[1,5-a]pyridin-2-yl]cyclopropanecarboxamide], the IC50 came to 0.00922 µM. Turning to `CN1CCC[C@H](Oc2cnc(C#N)cc2-c2ccn3nc(NC(=O)C4CC4)cc3c2)C1` [Example 65, N-[5-[2-cyano-5-[[(3S)-1-methyl-3-piperidyl]oxy]-4-pyridyl]pyrazolo[1,5-a]pyridin-2-yl]cyclopropanecarboxamide], the IC50 came out at 0.00871 µM. `N#Cc1cc(-c2ccn3nc(NC(=O)C4CC4)cc3c2)c(O[C@H]2CCN[C@@H](C(F)(F)F)C2)cn1` (single isomer, unassigned) [Example 14, N-(5-(2-cyano-5-(((2*R,4*S)-2-(trifluoromethyl)piperidin-4-yl)oxy)pyridin-4-yl)pyrazolo[1,5-a]pyridin-2-yl)cyclopropanecarboxamide]: the IC50 is 0.0249 µM. As for `COc1cc(C)ccc1-c1ccn2nc(NC(=O)C3CC3)cc2c1` [Example 745, N-[5-(2-methoxy-4-methyl-phenyl)pyrazolo[1,5-a]pyridin-2-yl]cyclopropanecarboxamide], the IC50 was found to be 3.52 µM. On to `N#Cc1cc(-c2ccn3nc(NC(=O)C4CC4)cc3c2)c(OCc2ccnc(C(F)(F)F)c2)cn1` [Example 62, N-[5-[2-cyano-5-[[2-(trifluoromethyl)-4-pyridyl]methoxy]-4-pyridyl]pyrazolo[1,5-a]pyridin-2-yl]cyclopropanecarboxamide], for which the IC50 is more than 5 µM. To `N#Cc1cc(-c2ccn3nc(NC(=O)C4CC4)cc3c2)c(N2CC(O)(C(F)(F)F)C2)cn1` [Example 75, N-[5-[2-cyano-5-[3-hydroxy-3-(trifluoromethyl)azetidin-1-yl]-4-pyridyl]pyrazolo[1,5-a]pyridin-2-yl]cyclopropanecarboxamide] belongs 0.398 µM; to `N#Cc1cc(-c2ccn3nc(NC(=O)C4CC4)cc3c2)c(OC[C@@H]2CC[C@@H](N)C2)cn1` [Example 22, N-[5-[5-[[(1R,3R)-3-aminocyclopentyl]methoxy]-2-cyano-4-pyridyl]pyrazolo[1,5-a]pyridin-2-yl]cyclopropanecarboxamide], 0.00121 µM; to `COc1cccnc1-c1ccn2nc(NC(=O)C3CC3)cc2c1` [Example 750, N-[5-(3-methoxy-2-pyridyl)pyrazolo[1,5-a]pyridin-2-yl]cyclopropanecarboxamide], 0.45 µM. For `CC(C)(C)OC(=O)N1CCC(COc2cnc(C#N)cc2-c2ccn3nc(NC(=O)C4CC4)cc3c2)C1` (stereo in doubt) [Example 35, tert-butyl (3R)-3-[[6-cyano-4-[2-(cyclopropanecarbonylamino)pyrazolo[1,5-a]pyridin-5-yl]-3-pyridyl]oxymethyl]pyrrolidine-1-carboxylate], the IC50 stood at 0.0354 µM.
